The values that follow come from US8742121B2, “Process for the preparation of small molecule inhibitors of MDM2 and intermediates used therein” (The Regents of the University of Michigan, priority 2005, dated 2014).

The subject of assay [1] is LNCaP prostate cancer cells (p53 wild-type). Briefly: WST-8 cell growth inhibition assay, LNCaP. Format: cell-based. To be noted: Homo sapiens, 96 h.
Assay [2] addresses T1, recombinant human MDM2 protein (residues 1-118, His-tag) (Homo sapiens, UniProt Q00987).
T1 construct: The recombinant MDM2 human protein (residues 1-118) fused to His-tag at the N terminus; His-tag (N)
Briefly: Fluorescence polarization (FP)-based competitive binding assay with PMDM6-F probe. To be noted: for Ki: competition with PMDM6-F, FIG. 4B/5. (In general: Polarisation of emitted light reports the rotation of a fluorescent probe.)

The subject of assay [3] is normal human prostate epithelial cells (PrEC) with wild-type p53. Kind of assay: WST-8 cell growth inhibition assay, PrEC. Type of assay: cell-based. For orientation: Formazan colour is commonly taken as a measure of viable cells.
The subject of assay [4] is PC-3 prostate cancer cells (p53 null). Briefly: WST-8 cell growth inhibition assay, PC-3.
In assay [5] the test system is RKO (wild-type p53) colon cancer cells. Kind of assay: WST-8 cell growth inhibition assay, RKO. Type of assay: cell-based.
The next assay addresses T2, p53-MDM2 interaction (Homo sapiens, UniProt Q00987).
T2 construct: endogenous in cells; host or cells: HCT116 colon cancer cells (lysate)
Briefly: Co-immunoprecipitation/Western blotting of p53-MDM2 interaction in HCT116 lysates. Format: biochemical. The conditions noted are these: increasing concentrations, 1 h at 4° C., FIG. 10. The method, then: Co-immunoprecipitation (Co-IP)/Western blotting assays were performed to assess the effects of Ke-43 on p53-MDM2 interaction. After harvesting and washing once with cold PBS, HCT116 colon cancer cells were lysed by sonication in cold Co-IP buffer (50 mM Tris (pH 7.5), 150 mM NaCl, 1 mM EDTA (pH 8.0), 0.5% NP-40) containing 1 mM phenylmethylsulfonyl fluoride and protease inhibitor cocktail. Sonicated lysates were then centrifuged at 12,000×g at 4° C. for 15 minutes. Supernatant containing 2 mg protein was incubated in the absence or presence of Ke-43 for 1 h at 4° C., followed by addition agarose beads, conjugated either with anti-p53 antibody (FL-393, Santa Cruz) or with a non-specific antibody. After mixing for 2 h at 4° C., the agarose beads were washed 3 times with cold Co-IP buffer, boiled in sample buffer followed by SDS-PAGE and the presence of p53 and MDM2 was detected by Western blotting with mouse monoclonal antibodies against p53 and MDM-2 proteins.
(In western blotting, separated proteins are transferred to a membrane and probed.)

Assay [6] has as its system HCT116 (wild-type p53) colon cancer cells. Kind of assay: WST-8 cell growth inhibition assay, HCT116. Format: cell-based.
Assay [7] deals with p53, MDM2 and p21 expression in RKO (wild-type p53) cells. Kind of assay: Western blot of p53 and its target gene products MDM2 and p21. Format: cell-based. The conditions noted are these: 24 hours; RKO compared with HT-29 (mutant p53), FIG. 12. The method, then: Cancer cells were treated with test compounds or 0.1% DMSO for 24 hours. Cells were harvested by trypsinization and washed with cold phosphate buffer saline, pH 7.5 (Invitrogen, Carlsbad, Calif.). Cells were lysed for 30 minutes in ice-cold lysis buffer (50 mM Tris (pH 7.5), 150 mM NaCl, 1 mM EDTA (pH 8.0), 25 mM sodium fluoride, 1% NP-40 and 0.1% SDS) containing 2 mM sodium orthovanadate, 1 mM phenylmethylsulfonyl fluoride and protease inhibitor cocktail (Roche Applied Science, Indianapolis, Ind.). Next, cell extracts were centrifuged at 12,000×g at 4° C. for 10 minutes to obtain clarified lysates. Protein was estimated by Bio-Rad dye. Cell lysates containing […] protein were resolved on a 4-20% tris-glycine gel (Invitrogen, Carlsbad, Calif.) and transferred onto poly(vinylidene difluoride) membranes. Immunodetection of proteins on the transfer membrane was performed by using anti-p53 (Ab-6, Oncogene Research Products, Boston, Mass.), anti-MDM2 (SMP14, Santa Cruz Biotechnology, Santa Cruz, Calif.) and anti-p21 (BD Biosciences, San Diego, Calif.) mouse monoclonal antibodies. Antibody to β-actin (Sigma, St Louis, Mo.) was used to assess the protein loading.

The test system of assay [8] is RKO (wild-type p53) colon cancer cells. Briefly: Cell cycle progression (BrdU/7-AAD flow cytometry), RKO. Type of assay: cell-based. To be noted: 22 + 2 hours, FIG. 14. The method, then: (§1) Cell cycle progression was evaluated in RKO (wild-type p53) and HT-29 (mutant p53) colon cancer cell lines and CCD-18Co normal colon fibroblast cells by determining S-phase cells by incorporation of bromodeoxyuridine (BrdU) followed by staining with FITC-labeled anti-BrdU antibody and the total DNA-content by staining with 7-aminoactinomycin D (7-AAD) according to manufacturer's instructions (BD Biosciences, San Jose, Calif.). Briefly, cancer and normal cells, after overnight incubation, were treated with out test compounds for 22 hours, followed by an additional 2 hours of incubation with 10 μM of BrdU. Cells were harvested, fixed and stained with FITC-labeled anti-BrdU and 7-AAD. Cell cycle distribution was analyzed by flow cytometry. Cells were acquired and data analyzed by using CellQuest software (BD Biosciences).

Assay [9] relates to HT-29 (mutant p53) colon cancer cells. Briefly: Cell cycle progression (BrdU/7-AAD flow cytometry), HT-29. Type of assay: cell-based. The conditions noted are these: HT-29, 22 + 2 hours, FIG. 14. The method, then:
as §1

The test system of assay [10] is CCD-18Co normal colon fibroblast cells. Briefly: Cell cycle progression (BrdU/7-AAD flow cytometry), CCD-18Co. Format: cell-based. The conditions noted are these: 22 + 2 hours, FIG. 14. On the procedure:
as §1

Assay [11] has as its system RKO (wild-type p53) colon cancer cells. Kind of assay: Cell death (trypan blue) and apoptosis (sub-diploid DNA, PI staining). Type of assay: cell-based. The conditions noted are these: 4 days; RKO compared with HT-29 and CCD-18Co, FIG. 13. On the procedure: RKO (wild-type p53) and HT-29 (mutant p53) colon cancer cell lines and CCD-18Co normal colon fibroblast cells were treated with increasing doses of Ke-43 or Ke-61 for 4 days in 6-well Petri dishes. Trypan blue dye exclusion assays were performed to determine the ability of the inhibitors to induce cell death. After 4 days of treatment, floating and adherent cells were harvested and stained with 0.2% of trypan blue solution (Sigma, St Louis, Mo.). Each treatment was performed in triplicate and at least 100 cells were counted. Cells stained blue or morphologically unhealthy cells were scored as dead cells. To evaluate apoptosis, sub-diploid DNA content in cells treated with or without test inhibitors was analyzed by propidium iodide (PI) staining After washing once with cold PBS, cells were fixed in 70% ethanol for 1 day at −20° C. Ethanol-fixed cells were then washed twice with PBS and stained with a staining solution containing propidium iodide (PI) at 50 ng/ml and RNAse A at 100 ng/ml in PBS, for 20 minutes in dark at room temperature. Acquisition of cells and analysis of sub-diploid DNA content was performed by flow cytometry using CellQuest software.

Assay [12] relates to PrEC normal prostate epithelial cells. Kind of assay: Protection of normal cells from TAXOL (trypan blue viability). Type of assay: cell-based, human. To be noted: pretreatment 1 μM and 2.5 μM for 24 hours, then 1 μM TAXOL for 2 days, FIG. 15. The method, then:
PrEC normal prostate epithelial cells were seeded in 6 well pates and incubated with Ke-63 (1 μM and 2.5 μM) for 24 hours, then 1 μM TAXOL (paclitaxel) was added for 2 days. Trypan blue was used to determine cell viability.

[13] abbreviates: 4 days, FIG. 6, read-out: IC50 inhibition of cell growth.

SMILES strings stand for the structures. Like-named read-outs stand apart in the source and are kept apart here.

Take `CC(C)C[C@H]1N[C@@H](C(=O)N(C)C)[C@H](c2cccc(Cl)c2)[C@@]12C(=O)Nc1cc(Cl)ccc12` [Example 1b, (2′R,3S,4′R,5′R) 6-Chloro-4′-(3-Chloro-Phenyl)-2′-Isobutyl-2-Oxo-1,2-Dihydro-Spiro[Indole-3,3′-Pyrrolidine]-5′-Carboxylic Acid Dimethylamide]: the IC50 in [1] (setting [13]) was determined as 2100 nM. Further, in [2], the inhibitory constant (Ki) turned out to be 300 nM. Moreover, in [2] (relative to 1a), the “times more potent than 1a (Ki)” value was 28 times.

On to `CC(C)C[C@H]1N[C@@H](C(=O)N(C)C)[C@H](c2ccc(Cl)cc2)[C@@]12C(=O)Nc1cc(Cl)ccc12` [Example 1c, (2′R,3S,4′R,5′R) 6-Chloro-4′-(4-Chloro-Phenyl)-2′-Isobutyl-2-Oxo-1,2-Dihydro-Spiro[Indole-3,3′-Pyrrolidine]-5′-Carboxylic Acid Dimethylamide], for which the inhibitory constant (Ki) in assay [2] is 7700 nM. Moreover, the “times less potent than 1b (Ki)” value in assay [2] (relative to 1b) is on record as 26 times.

Regarding `CN(C)C(=O)[C@@H]1N[C@H](CC(C)(C)C)[C@]2(C(=O)Nc3cc(Cl)ccc32)[C@H]1c1cccc(Cl)c1` [Example 1d, (2′R,3S,4′R,5′R) 6-Chloro-4′-(3-Chloro-Phenyl)-2-Oxo-2′-(2,2-Dimethylpropyl)-1,2-Dihydro-Spiro[Indole-3,3′-Pyrrolidine]-5′-Carboxylic Acid Dimethylamide], the IC50 in assay [3] (Homo sapiens, 96 h, PrEC, 4 days, FIG. 8) amounted to 6000 nM; in assay [1] (read-out: IC50 inhibition of cell growth), 830 nM; in assay [4] (Homo sapiens, 96 h, read-out: IC50 inhibition of cell growth) it was 22500 nM. The “times less potent in PrEC cells than in LNCaP cells” value in assay [3] (PrEC versus LNCaP) was 13 times. Also, in [4] (PC-3 versus LNCaP), the “times less active in PC-3 cells than in LNCaP cells” value stood at 27 times.

Regarding `CCC[C@H]1N[C@@H](C(=O)N(C)C)[C@H](c2cccc(Cl)c2)[C@@]12C(=O)Nc1cc(Cl)ccc12` [Example 1e, (2′R,3S,4′R,5′R) 6-Chloro-4′-(3-Chloro-Phenyl)-2-Oxo-2′-Propyl-1,2-Dihydro-Spiro[Indole-3,3′-Pyrrolidine]-5′-Carboxylic Acid Dimethylamide], the IC50 in [1] (setting [13]) was found to be 2700 nM. In addition, in assay [2], the inhibition constant Ki came to 650 nM.

On to `CC(C)CC[C@H]1N[C@@H](C(=O)N(C)C)[C@H](c2cccc(Cl)c2)[C@@]12C(=O)Nc1cc(Cl)ccc12` [Example 1f, (2′R,3S,4′R,5′R) 6-Chloro-4′-(3-Chloro-Phenyl)-2′-(3-Methyl-Butyl)-2-Oxo-1,2-Dihydro-Spiro[Indole-3,3′-Pyrrolidine]-5′-Carboxylic Acid Dimethylamide], for which, in assay [1] (setting [13]), the concentration for half-maximal inhibition (IC50) amounted to 1900 nM. Besides, in assay [2], the Ki worked out at 390 nM.

`CC(C)(C)C[C@H]1N[C@@H](C(=O)NCCN2CCOCC2)[C@H](c2cccc(Br)c2)[C@@]12C(=O)Nc1cc(Cl)ccc12` [Ke-43, (2′R,3S,4′R,5′R) 6-Chloro-4′-(3-Bromo-Phenyl)-2′-(2,2-Dimethyl-Propyl)-2-Oxo-1,2-Dihydro-Spiro[Indole-3,3′-Pyrrolidine]-5′-Carboxylic Acid (2-Morpholin-4-yl-Ethyl)-Amide]: the “specificity over cancer cells expressing mutant p53 (HT-29)” value in assay [5] (RKO versus HT-29) is listed as “greater than 13 fold”; in assay [6] (HCT116 versus HT-29), “greater than 18 fold”. The growth inhibitory activity result in assay [5] (RKO, 4 days, FIG. 11) is recorded as “potent growth inhibitory activity”; in assay [6] (HCT116, 4 days, FIG. 11), “potent growth inhibitory activity”. In addition, the “immunoprecipitation of MDM2 by anti-p53 antibody” value at p53-MDM2 interaction is “disrupts the interaction between p53 and MDM2”. Moreover, the “accumulation of p53 and its target gene-products” value in [7] is “induced accumulation of p53 and its target gene-products only in RKO cells expressing wild-type p53”. In addition, the “S-phase / cell cycle progression” value in [8] and in assay [10] was “dose-dependent depletion of S-phase” each time. Also, the cell cycle progression result in assay [9] was “no appreciable effect on cell cycle progression”. Further, the “Ki values (in words)” value in assay [2] (Example 132, FIG. 9, more potent than the natural p53 peptide) is recorded as “low nM to sub-nM range”. In addition, the apoptosis entry in assay [11] is reported as “Only cancer cells expressing wild-type p53 underwent apoptosis”.

Regarding `COc1ccc2c(c1)NC(=O)[C@]21[C@@H](CC(C)(C)C)N[C@@H](C(=O)N(C)C)[C@@H]1c1cccc(Br)c1` [Ke-61, (2′R,3S,4′R,5′R) 4′-(3-Bromo-Phenyl)-2′-(2,2-Dimethyl-Propyl)-6-Methoxy-2-Oxo-1,2-Dihydro-Spiro[Indole-3,3′-Pyrrolidine]-5′-Carboxylic Acid Dimethylamide], the “S-phase / cell cycle progression” value in assay [8] and in [10] was “did not have a significant effect” in each case. The cell cycle progression result in assay [9] is listed as “did not have a significant effect”.

As to `CC(C)(C)C[C@H]1N[C@@H](C(=O)NCCN2CCOCC2)[C@H](c2cccc(Cl)c2F)[C@@]12C(=O)Nc1cc(Cl)ccc12` [Ke-63, (2′R,3S,4S,5′R) 6-Chloro-4′-(3-Chloro-2-Fluoro-Phenyl)-2′-(2,2-Dimethyl-Propyl)-2-Oxo-1,2-Dihydro-Spiro[Indole-3,3′-Pyrrolidine]-5′-Carboxylic Acid (2-Morpholin-4-yl-Ethyl)-Amide], in [12], the “protection of cells from TAXOL (cell viability)” value was “cells were protected from TAXOL”.

By IC50 is commonly meant the concentration that inhibits the measured activity by half. For orientation: Ki means a measure of affinity in units of concentration, obtained from inhibition or displacement.
